Test results: patent US5686494A, “Pharmaceutical preparations for ameliorating epigastric functional disorders” (Daiichi Pharmaceutical Co., Ltd., priority 1993, dated 1997)
Several values for one entry are separate records, joined by “and”; a condition that tells them apart may be missing. Equal entries are not always repeated. Ends that are not written are not given here. * marks the point of attachment. SO3H = O=S(=O)(O)*

How the values were obtained:
[1] = system: cholecystokinin (CCK)-induced delayed gastric emptying model; test: Effect on gastric emptying in cholecystokinin (CCK)-induced delayed gastric emptying model (Phenol red method); format: in vivo, male Slc:ddY mice; settings: for Gastric emptying rate (%): 90 min before phenol red, CCK 5 μg/kg i.p. 5 min before, measured 30 min after phenol red
Experimental: Effect on gastric emptying in cholecystokinin (CCK)-induced delayed gastric emptying model (Phenol red method)
After overnight fasting, male Slc:ddY mice of 6 to 7 weeks of age (body weight, 20 to 30 g; SLC, Shizuoka, Japan) were divided into six groups: a group in which cholecystokinin was administered with no drug treatment (No. 1 in Table 1), groups in which cholecystokinin was administered after administration of compound A (Nos. 2 to 4), a group in which cholecystokinin was administered after administration of cisapride as a positive control (No. 5) and a group in which cholecystokinin and drug treatments were not made (No. 6). Five to 15 mice were used in each group.
First, 90 minutes before the administration of phenol red, 1 mg/kg, 3 mg/kg or 10 mg/kg of compound A suspended in 0.5% carboxymethylcellulose was orally administered to mice of the compound A administration groups, respectively, (Nos. 2 to 4), 3 mg/kg of cisapride suspended in 0.5% carboxymethylcellulose was orally administered to mice as the positive control drug administration group (No. 5) and 0.5% carboxymethylcellulose was orally administered to mice of the […] (No. 1) and the no drug and no cholecystokinin treatment group (No. 6). Next, 5 minutes before the phenol red administration, 5 μg/kg of cholecystokinin (CCK8s, manufactured by Sigma) which had been dissolved in distilled water and then diluted with physiological saline was intraperitoneally administered to mice of each group. Thereafter, phenol red dissolved in 1% methylcellulose was orally administered with a dose of 0.2 mg/0.3 ml/mouse. After 30 minutes of the phenol red administration, each mouse was sacrificed by cervical dislocation to excise the stomach, and the amount of phenol red remaining in the excised stomach was measured to calculate the gastric emptying rate (%) by the following formula.
Gastric emptying rate (%)=[1-(phenol red recovered from drug-applied
(X is the average value of the recovered phenol red remaining in the stomach excised from each mouse sacrificed just after the phenol red administration)

[2] = system: dopamine-induced delayed gastric emptying model; test: Effect on gastric emptying in dopamine-induced delayed gastric emptying model (phenol red method); format: in vivo, male Slc:ddY mice; settings: for Gastric emptying rate (%): 90 min before phenol red, dopamine 30 mg/kg i.p. 5 min before, measured 30 min after phenol red
Experimental: Effect on gastric emptying in dopamine-induced delayed gastric emptying model (phenol red method) After overnight fasting, male Slc:ddY mice of 6 to 7 weeks of age (body weight, 28 to 32 g; SLC, Shizuoka, Japan) were divided into 7 groups, namely a group in which dopamine was administered with no drug treatment (No. 1 in Table 2), groups in which dopamine was administered after administration of the compound A (Nos. 2 to 5), a group in which dopamine was administered after administration of cisapride as a positive control (No. 6) and a group in which dopamine and drug treatments were not made (No. 7). Seven mice were used in each group. First, 90 minutes before the administration of phenol red, 0.01 mg/kg, 0.03 mg/kg, 0.1 mg/kg or 0.3 mg/kg of the compound A suspended in 0.5% carboxymethylcellulose was orally administered to mice of the compound A administration groups (Nos. 2 to 5), 3 mg/kg of cisapride suspended in 0.5% carboxymethylcellulose was orally administered to mice as the positive control drug administration group (No. 6) and 0.5% carboxymethylcellulose was orally administered to mice as the dopamine administration group with no drug treatment (No. 1) and the no drug and no dopamine treatment group (No. 7). Next, 5 minutes before the phenol red administration, 30 mg/kg of dopamine which has been dissolved in distilled water and then diluted with physiological saline was intraperitoneally administered to mice of each group. Thereafter, phenol red dissolved in 1% methylcellulose was orally administered with a dose of 0.2 mg/0.3 ml/mouse. […] mouse/X)]×100 (X is an average value of the recovered phenol red remained in the stomach excised from each mouse sacrificed just after the phenol red administration)

[3] = system: patients diagnosed as chronic gastritis and the like without morphological changes in the stomach; test: Effects on subjective symptoms in patients; format: in vivo, human
Text: (§1) Effects on subjective symptoms and gastric emptying in patients
(§2) A total of 8 patients diagnosed as chronic gastritis and the like without morphological changes in the stomach were examined in this test, each patient complaining of medium or more intense chronic epigastric fullness, having other NUD (or epigastric dysfunction complaints) such as gastric oppression, nausea, vomiting, anorexia, heartburn and the like and also showing delayed gastric emptying.
(§3) Each patient was allowed to take 2 tablets of the test pharmaceutical preparation of Example 1 three times a day 15 to 30 minutes before morning, noon and evening meals (600 mg of compound A/day), and the administration was continued for 2 weeks. Subjective symptoms (Table 3) were checked before and 2 weeks after the administration and gastric emptying (Table 4) was checked before and 2 weeks after the administration.
Subjective symptoms were examined by checking existence of the symptoms before and 2 weeks after the administration.

[4] = system: patients diagnosed as chronic gastritis and the like without morphological changes in the stomach; test: Effect on gastric emptying in patients (acetaminophen method); format: in vivo, human
Text: as §1, §2, §3
Gastric emptying was examined in accordance with the acetaminophen method of Heading et al (cf. Br. J. Pharmacol. 47 415-421 (1973)). That is, each patient after overnight fasting with no drug administration was allowed to take a test food (200 ml of a liquid natural food OKUNOS-A, thoroughly mixed with 1.5 g of acetaminophen) at 9 a.m. and then to take a seat without eating and drinking until completion of the examination. Heparinized blood samples were collected before and 45 minutes after the administration. Thereafter, serum was separated from each sample to measure serum acetaminophen concentration by a high performance liquid chromatography (HPLC).

[5] = 2 tablets of Example 1 three times a day (600 mg of compound A/day), 2 weeks

## COc1cc(N)c(Cl)cc1C(=O)NC1CCN(CCCOc2ccc(F)cc2)CC1OC (stereo not drawn) [Cisapride, cisapride, reference compound]
[1]; positive control, 3 mg/kg oral
  Gastric emptying rate (%): 36.7 ± 6.8%
[2]; 3 mg/kg oral
  Gastric emptying rate (%): 23.4 ± 6.6%

## cholecystokinin (DY(SO3H)MGWMDF; not fully specified (C-terminus); ends and bridges not checked; UniProt P06307 96-103, looked up) [cholecystokinin (CCK8s, manufactured by Sigma), reference compound]
[1]; 5 μg/kg cholecystokinin intraperitoneal, no drug
  gastric emptying rate reduced to (fraction): 1/3

## CNC(=O)c1cccc(NCC(=O)NCCc2ccc(OC)c(OC)c2)c1 [Compound A, 3-[[[2-(3,4-dimethoxyphenyl)ethyl]carbamoyl]methyl]amino-N-methylbenzamide]
[1]; 1 mg/kg oral
  Gastric emptying rate (%): 24.8 ± 2.1%
[1]; 1 mg/kg, 3 mg/kg or 10 mg/kg oral, vs CCK-treated mice with reduced gastric emptying rate
  gastric emptying rate improved: improved in a dose dependent fashion
[1]; 3 mg/kg oral
  Gastric emptying rate (%): 27.6 ± 4.2%
[1]; 10 mg/kg oral
  Gastric emptying rate (%): 40.5 ± 6.9%
[3]; [5]
  Symptom-disappeared cases/tested cases: Abdominal distension: 7/7
  Symptom-disappeared cases/tested cases: Anorexia: 3/3
  Symptom-disappeared cases/tested cases: Epigastralgia: 4/4
  Symptom-disappeared cases/tested cases: Gastric disphoria: 4/4
  Symptom-disappeared cases/tested cases: Heartburn: 2/2
  Symptom-disappeared cases/tested cases: Nausea: 4/4
  Symptom-disappeared cases/tested cases: Vomiting: 3/3
[3]; patients No. 1 to No. 8, after 2 weeks, 600 mg/day oral
  disappearance of subjective symptoms: complete disappearance of subjective symptoms
[4]; 2 weeks after start, 600 mg of compound A/day oral, individual patients No. 1 to 8 in order, 45 minutes after 1.5 g acetaminophen in test food
  Serum acetaminophen concentration, After administration: 7.6 µg/mL and 10.1 µg/mL and 12.8 µg/mL and 7.8 µg/mL and 7.3 µg/mL and 8.1 µg/mL and 8.5 µg/mL and 7.1 µg/mL
[4]; 2 weeks, 600 mg of compound A/day oral
  amelioration of gastric emptying (cases): 7 of the 8
[4]; baseline before drug administration, individual patients No. 1 to 8 in order, 45 minutes after 1.5 g acetaminophen in test food
  Serum acetaminophen concentration, Before administration: 7.6 µg/mL and 8.4 µg/mL and 8.0 µg/mL and 6.1 µg/mL and 6.9 µg/mL and 6.6 µg/mL and 5.2 µg/mL and 4.6 µg/mL
[2]; 0.01 mg/kg oral
  Gastric emptying rate (%): 6.9 ± 4.7%
[2]; 0.01 mg/kg, 0.03 mg/kg, 0.1 mg/kg or 0.3 mg/kg oral, vs dopamine-treated mice with reduced gastric emptying rate
  gastric emptying rate improved: improved
[2]; 0.03 mg/kg oral
  Gastric emptying rate (%): 21.2 ± 6.1%
[2]; 0.1 mg/kg oral
  Gastric emptying rate (%): 18.1 ± 8.3%
[2]; 0.3 mg/kg oral
  Gastric emptying rate (%): 36.2 ± 10.2%

## NCCc1ccc(O)c(O)c1 [dopamine, reference compound]
[2]; 30 mg/kg dopamine intraperitoneal, no drug
  gastric emptying rate reduced to (fraction): 1/20
